Data on one molecule can be found in publication PMC9367672, “In vitro differences in toddalolactone metabolism in various species and its effect on cytochrome P450 expression” (Pharmaceutical Biology, 2022).

The nature of series [1]: Metabolic stability assessment in dog liver microsomes. Format: in vitro ADME. Conditions: beagle, pH 7.4, DLMs, CYP incubation system, toddalolactone 20 μM, 0-90 min, read-out: half-life value (T1/2). As for the experimental part: The CYP reaction system (200 μL) consisted of 0.1 M potassium phosphate buffer (pH 7.4), an NADPH-generating system (1 mM NADPH, 10 mM G-6-P, 1 unit/mL G-6-PD, 4 mM MgCl2), and liver microsomes or recombinant human microsomes (supersomes). Each of the in vitro enzymatic assays using liver microsomes was linear with respect to incubation time and amount of protein. After a pre-incubation at 37 °C for 3 min, the reactions were initiated by adding NADP^+. After incubating for 60 min, the reactions were quenched by adding 200 μL of ice-cold acetonitrile. Samples were centrifuged at 18,000 g for 15 min at 4 °C and 10 μL of supernatant was analyzed using an HPLC system. […]
In the UGT reaction system, liver microsomes were incubated in 200 μL of the reaction system containing 4 mM UDPGA, 5 mM MgCl2, 20 µg/mL alamethicin, and 50 mM Tris-HCl buffer (pH 7.4). […] After centrifugation at 18,000 g for 15 min, 10 μL of the supernatant was analyzed by HPLC.
Toddalolactone (20 μM) was incubated with different liver microsomes, including HLMs, DLMs, PLMs, MLMs, RAMs, RLMs or MIMs in oxidative metabolism and glucuronidation reaction systems. […] The mixtures were centrifuged at 18,000 g for 15 min at 4 °C and then 10 μL of the supernatant was analyzed by HPLC. […]
The peak areas of toddalolactone and its metabolites were detected using a HPLC system (Shimadzu, Kyoto, Japan). […]

Series [2] has as its system PLMs. Put plainly: Enzyme kinetics of toddalolactone metabolism in mini pig liver microsomes (oxidative metabolism and glucuronidation). It is filed as in vitro ADME. The conditions noted are these: for V max: toddalolactone 1–200 μM. As for the experimental part:
The CYP reaction system (200 μL) consisted of 0.1 M potassium phosphate buffer (pH 7.4), an NADPH-generating system (1 mM NADPH, 10 mM G-6-P, 1 unit/mL G-6-PD, 4 mM MgCl2), and liver microsomes or recombinant human microsomes (supersomes). Each of the in vitro enzymatic assays using liver microsomes was linear with respect to incubation time and amount of protein. After a pre-incubation at 37 °C for 3 min, the reactions were initiated by adding NADP^+. After incubating for 60 min, the reactions were quenched by adding 200 μL of ice-cold acetonitrile. Samples were centrifuged at 18,000 g for 15 min at 4 °C and 10 μL of supernatant was analyzed using an HPLC system. NADPH or CYP enzyme sources were not used in the control group to ensure that the metabolic reactions were CYP- and NADPH-dependent. All incubation assays were completed in triplicate. The data are presented as mean ± standard deviation (SD).
In the UGT reaction system, liver microsomes were incubated in 200 μL of the reaction system containing 4 mM UDPGA, 5 mM MgCl2, 20 µg/mL alamethicin, and 50 mM Tris-HCl buffer (pH 7.4). After pre-incubation at 37 °C for 3 min, UDPGA was added to the mixture to initiate the reactions. The mixtures were incubated at 37 °C for 60 min, followed by the addition of 200 μL of cold methanol to terminate the reactions. After centrifugation at 18,000 g for 15 min, 10 μL of the supernatant was analyzed by HPLC.
The enzyme kinetics of toddalolactone in oxidative metabolism and glucuronidation were determined by incubating liver microsomes (0.2 mg/mL) or CYPs (15 nM) with different concentrations of toddalolactone (1–200 μM). The kinetic parameters including Km and Vmax were obtained by fitting the experimental data to the Michaelis–Menten equation (Equation (1)), biphasic kinetics equation (Equation (2)), or substrate inhibition equation (Equation (3)) (He et al. [2018]), and the results were graphically represented on Eadie–Hofstee plots. The in vitro intrinsic clearance (CLint) was calculated based on the Vmax/Km ratio. Metabolites were quantified using the standard curve for toddalolactone because of the absence of metabolite standards. All incubations were repeated in three independent experiments. Kinetic constants were expressed with mean ± SD: (1) V=Vmax×[S]/Km+[S] (2) V=Vmax1×[S]/Ks1+[S]+Vmax2×[S]/Ks2+[S] (3) V=Vmax×[S]/Ks+[S]+[S]^2/Ksi where v is the rate of reaction, Vmax is the estimated maximum velocity, [S] is the substrate concentration, and Km is the affinity constant of the substrate; Vmax1 and Vmax2 represent the estimated maximum velocity of the two metabolic phases; Ks1 and Ks2 represent the affinity constants for two metabolic phases; Ks and Ksi are the substrate affinity and inhibition constants, respectively.
The enzyme kinetics in oxidative metabolism and glucuronidation of toddalolactone were studied, and preliminary experiments were performed to ensure that metabolites were formed in the linear range of both reaction time and microsomal protein concentration. The metabolite with the largest peak area was used to calculate the kinetic parameter values (Km, Vmax and CLint). Based on the results of toddalolactone metabolism in different species, the kinetic parameter values in RLMs, DLMs, MLMs, HLMs, RAMs, MIMs, PLMs, CYP1A1 and CYP3A5 were calculated using P4, P4, P4, P4, P2, P2, P4, P4 and P4 data in oxidative metabolism, respectively. In the glucuronidation reaction, the kinetic parameter values in RLMs, MLMs, HLMs, RAMs and PLMs were calculated using P5, P6, P6, P6 and P5 data, respectively.

Series [3] relates to HLMs. Put plainly: Prediction of in vivo hepatic clearance in humans from HLM kinetics. Format: in vitro ADME, human. On the procedure: The in vivo hepatic clearances in oxidative metabolism and glucuronidation of toddalolactone were calculated using Equations (4)–(6) (Li et al. [2008]): (4) CLint in vitro=∑i=1nVmax(Mi)/Km(Mi) (5) CLint in vivo=CLint in vitro⋅SF (6) CLH=QH⋅fu⋅CLint in vivo/QH+fu⋅CLint in vivo where SF is the milligrams of microsomal protein per gram of liver multiplied by the grams of liver weight; CLH is hepatic clearance; fu is the unbound fraction in the blood (the value of fu was set to 1 due to the absence of available data for toddalolactone); QH is the blood flow in the liver; and Mi is the metabolite of toddalolacone. The physiological parameters to calculate intrinsic clearance were as follows. The liver weight of dogs, rats and humans were 32, 40 and 25.7 g/kg body weight, respectively; the content of microsomal protein was 77.9, 44.8 and 48.8 mg/g of liver; and the blood flow in the liver was 30.9, 55.2 and 20.7 mL/(min ⋅ kg), respectively (Naritomi et al. [2001]).

Details of series [4]: method as in Zhou et al. ([2021]). The conditions noted are these: mouse blood; intravenous administration; ref Zhou et al. ([2021]); cited from earlier work.
The mark [5] stands for this setting: P450-catalyzed oxidation, P4 formation.
Where [6] appears, read: glucuronide metabolism, P5 formation.

Consider `COc1cc2oc(=O)ccc2c(OC)c1C[C@@H](O)C(C)(C)O` [toddalolactone], for which the half-life at 20 μM in series [1] turned out to be 8.23 ± 0.7 h. Also, in series [2] (setting [5]), the K m is recorded as 135.36 ± 32.39 µM and the V max was 94.24 ± 11.61 pmol/min/mg protein. In series [2] (setting [6]), this molecule gave a K m of 93.28 ± 22.35 µM and a V max of 34.12 ± 3.62 pmol/min/mg protein. The “CLH versus hepatic blood flow (QH)” value in series [3] (HLMs) is 8.68%. In addition, in series [3] (humans), the “clearance class according to predicted CLH” value was “low-clearance (low-clearance drugs (<30% liver blood flow))”. The “in vivo hepatic clearance (CLH)” value in series [3] (humans, predicted from kinetic parameters of P1–P6, fu set to 1) is 5.25 mL/(min/kg body weight). The t1/2 in series [4] is 0.8 h.
